The text below walks through data of patent US10420734B2, “Method of treating cancer using selective estrogen receptor modulators” (Duke University, priority 2014, dated 2019).

One test deals with MCF7 cells. The test can be described thus: MCF7 proliferation in response to E2 or insulin. The note with it: SERMs and SERDs 10^-6 M, insulin 2×10^-9 M. It is filed as cell-based. The method, then: The expression of ESR1 target genes responsive to (FIG. 10A) agonists, (FIG. 10B) primarily SERMs, or (FIG. 10C) SERMs and agonists was analyzed as in FIG. 5. Relative changes of these and additional target genes designed to evaluate dose dependent response to RAD1901 are presented in FIG. 11. Significant target gene regulation (*p<0.05) as compared to the vehicle control was detected by 2 way ANOVA followed by Fisher's LSD (Graphpad Prism 6). […] Triplicate wells of SKBR3 cells were transfected with plasmids expressing ESR1 fused to VP16 together with Gal4DBD alone (control) or Gal4DBD fused to ESR1 interacting peptides noted on the horizontal axis. Cells were then treated with the indicated ESR1 ligands (10^−7 M unless otherwise indicated). Interaction of ESR1 with the Gal4DBD peptide constructs was detected through activation of a Gal4-responsive luciferase reporter construct and was normalized to detected β-galactosidase activity expressed in a constitutive manner using a second vector. Normalized response was expressed as fold increase over the detected level of interaction between Gal4DBD alone and ESR1-VP16 in the absence of ligand (Veh). For FIG. 10E, the effect of SERMs and SERDs (10^−6 M) on the proliferation of MCF7 cells in response to E2 (10^−9 M) or insulin (2×10^−9 M) was evaluated as in FIG. 5. Statistically similar treatments (2-way ANOVA followed by Bonferroni comparison) are indicated by letters. […] The expression of ESR1 target genes responsive to (A) agonists, (B) primarily SERMs, or (C) SERMs and agonists was analyzed using RT qPCR following RNA isolation. mRNA expression was normalized (ΔΔCT analysis) to the similarly detected 36B4 housekeeping. The profiles presented in dendogram format were analyzed with the Ward hierarchical clustering algorithm (JMP 11) using standardized data.

In the next test the test system is MCF7 xenograft tumors. The test can be described thus: MCF7 xenograft tumor study in estrogen-treated ovariectomized nu/nu mice. Format: in vivo. The note with it: 20 mg/kg sc daily. The method, then: A total of 90 female Nu/Nu mice were ovariectomized and implanted subcutaneous simultaneously with an estrogen pellet (Innovative Research of America) releasing 0.72 mg estradiol (E2) over 60 days. 2 days later an approximately 6 mm^3 fragment of an MCF7 xenograft tumor (isolated from a recently sacrificed estrogen treated nu/nu mouse) was inserted subcutaneous into the axial mammary gland. Tumor growth (by caliper measurement) and animal body weight were monitored 3× weekly until tumor volume reached ˜0.2 cm^3. […] Treatments were formulated in sterile corn oil and were administered daily by subcutaneous injection. After 3 weeks of treatments, animals were euthanized and serum and tissues saved for analysis. FIG. 1B depicts tumor volume analyzed using non-linear curve fit and exponential growth calculation (Graphpad Prism), followed by two-way ANOVA and Bonferroni analysis.
Xenograft tumor analysis: Estrogen-stimulated MCF7 tumors were initiated in the axial mammary gland of 6-week old estrogen-treated (0.72 mg/60 days pellet sc, Innovative Research of America) ovariectomized female NU/NU mice (in-house colony) by serial transfer and were measured as described (Wardell et al., (2013) Clin Cancer Res 19 (9):2420-2431). […] Animal tissues were processed and analyzed as described (Wardell et al., (2013) Clin Cancer Res 19 (9):2420-2431).
The ability of RAD1901 (FIG. 5A) to modulate the […] estradiol (E2) dependent transcriptional activity of the human estrogen receptor alpha (ESR1) and human estrogen receptor beta (ESR2) was assessed in transiently transfected SKBR3 cells using a synthetic reporter gene. […] DNA content as assessed by fluorescence was measured as a surrogate for cell proliferation. The relative increase in DNA fluorescence was calculated by normalizing to baseline values detected in a duplicate plate of cells that was harvested on day 1 prior to the initial treatment. […] For FIG. 5F, expression of ESR1 target genes in tumors was analyzed essentially as in (C).

Another test concerns LTED MCF7 cells. The test can be described thus: LTED MCF7 cell proliferation assay. Format: cell-based. The settings on record: model of aromatase resistance, 10^-11-10^-6 M, 8 day assay.
In a further test the target is T1, ESR1 (Homo sapiens, UniProt P03372).
T1 sequence (P03372 1-595): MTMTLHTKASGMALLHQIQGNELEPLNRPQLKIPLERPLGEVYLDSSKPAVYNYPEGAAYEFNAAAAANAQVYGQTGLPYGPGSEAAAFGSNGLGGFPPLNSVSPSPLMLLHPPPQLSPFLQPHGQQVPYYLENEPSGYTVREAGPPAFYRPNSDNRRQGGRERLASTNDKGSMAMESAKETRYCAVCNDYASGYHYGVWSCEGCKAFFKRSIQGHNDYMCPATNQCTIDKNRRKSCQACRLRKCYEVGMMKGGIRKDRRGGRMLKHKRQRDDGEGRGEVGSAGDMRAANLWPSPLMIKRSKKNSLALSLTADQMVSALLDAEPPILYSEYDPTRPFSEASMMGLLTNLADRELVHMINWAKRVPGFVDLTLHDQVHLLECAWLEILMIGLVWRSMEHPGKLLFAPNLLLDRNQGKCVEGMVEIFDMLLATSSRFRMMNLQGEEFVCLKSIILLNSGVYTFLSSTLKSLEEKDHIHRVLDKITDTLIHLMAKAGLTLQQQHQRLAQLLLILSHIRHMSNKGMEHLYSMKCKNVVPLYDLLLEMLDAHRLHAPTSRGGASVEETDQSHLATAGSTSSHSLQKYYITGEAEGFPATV
The test can be described thus: ESR1 expression in LTED MCF7 cells (immunoblot). It is filed as cell-based. The settings on record: 24 hours, SERDs 10^-6 M. The protocol: MCF7 and SKBR3 cell lines were maintained in DMEM/F12 or RPMI media (Invitrogen), respectively, supplemented with 8% fetal bovine serum (FBS, Gemini), non-essential amino acids (Invitrogen), and sodium pyruvate (Invitrogen). Unless otherwise indicated, cells were plated for experiments in media lacking phenol red and supplemented with 8% charcoal stripped FBS (CFS, Gemini). LTED MCF7 cells were maintained and plated for experiments in phenol red free DMEM/F12 media supplemented with 8% CFS that had been charcoal stripped twice. 48 hours after plating, cells were treated with ESR1 ligands as indicated, and were harvested for immunoblot or real time quantitative PCR analysis 24 hours after treatment.
Expression of ESR1 and loading control cytokeratin 18 (CK18—FIG. 7A) in whole cell extracts were detected by immunoblot (top). ESR1 levels relative to CK18 were quantitated by densitometry using Adobe Photoshop (bottom). […] ESR1 expression was detected as in FIG. 6A. For FIGS. 6C-6D, LTED MCF7 cells were plated in phenol red free media supplemented with FBS that was stripped of growth factors twice using charcoal. For FIG. 6C, after 48 hours, cells were treated for 24 hours with E2 (10^−7 M) or SERDs (10^−6 M) and ESR1 was analyzed as in FIG. 6A.
In general terms: Immunoblotting shows a protein as a band on a membrane.

Regarding `O=C(c1ccc(OCCN2CCCCC2)cc1)c1c(-c2ccc(O)cc2)sc2cc(O)ccc12` [Ralox, raloxifene], in the test on MCF7 cells, the insulin-stimulated proliferation result is listed as “without effect”. For `CC/C(=C(\c1ccccc1)c1ccc(OCCN(C)C)cc1)c1ccccc1` [tamoxifen, reference compound], the “expression of ESR1-target genes PGR and FHL1 in treated tumors” value in the test on MCF7 xenograft tumors is “suppress the expression of the ESR1-target genes PGR and FHL1 to the same degree”. Besides, the cell proliferation result in the test on LTED MCF7 cells was “minimally effective”.

Turning to 4-hydroxytamoxifen [4OHT], the insulin-stimulated proliferation result in the test on MCF7 cells is recorded as “without effect”. For `C[C@]12CC[C@@H]3c4ccc(O)cc4C[C@@H](CCCCCCCCC[S+]([O-])CCCC(F)(F)C(F)(F)F)[C@H]3[C@@H]1CC[C@@H]2O` (stereo partly shown) [ICI, ICI 182,780], the insulin-stimulated proliferation result with MCF7 cells is recorded as “efficiently inhibited”. Moreover, the cell proliferation entry in the test on LTED MCF7 cells is recorded as “inhibited cell proliferation”. Besides, the ESR1 expression levels result on ESR1 is “downregulated ESR1 expression”.
